Test results: article PMC5077133, “Towards Development of Small Molecule Lipid II Inhibitors as Novel Antibiotics” (PLoS ONE, 2016)

Columns and labels:
[1] = tested on: E. faecium F118 (VRE); test: Antibacterial activity (MIC, broth dilution); format: cell-based; conditions: CLSI, in µg/mL
Procedure: (§1) Determination of the Minimal Inhibitory Concentrations (MIC) by dilution was carried out by broth dilution according to CLSI standards.

[2] = tested on: K. pneumoniae NR-15410 (KPC); test: Antibacterial activity (MIC, broth dilution); format: cell-based; conditions: CLSI
Procedure: as §1

[3] = tested on: S. aureus MRSA 1094; test: Antibacterial activity (MIC, broth dilution); format: cell-based; conditions: CLSI
Procedure: as §1

[4] = tested on: P. aeruginosa ATCC 27853; test: Antibacterial activity (MIC, broth dilution); format: cell-based; conditions: CLSI
Procedure: as §1

[5] = tested on: E. aerogenes ATCC 13048; test: Antibacterial activity (MIC, broth dilution); format: cell-based; conditions: CLSI
Procedure: as §1

[6] = tested on: S. aureus HFH-30123 (MRSA); test: Antibacterial activity (MIC, broth dilution); format: cell-based; conditions: CLSI
Procedure: as §1

[7] = tested on: E. faecium EF1509 (VRE); test: Antibacterial activity (MIC, broth dilution); format: cell-based; conditions: CLSI, in µg/mL
Procedure: as §1

[8] = tested on: P. aeruginosa X13273; test: Antibacterial activity (MIC, broth dilution); format: cell-based; conditions: CLSI, in µg/mL
Procedure: as §1

[9] = tested on: K. pneumoniae NR-15411 (KPC); test: Antibacterial activity (MIC, broth dilution); format: cell-based; conditions: CLSI
Procedure: as §1

[10] = tested on: P. aeruginosa PA01; test: Antibacterial activity (MIC, broth dilution); format: cell-based; conditions: CLSI
Procedure: as §1

[11] = tested on: E. cloacae ATCC 13047; test: Antibacterial activity (MIC, broth dilution); format: cell-based; conditions: CLSI
Procedure: as §1

[12] = Lipid II binding by Surface Plasmon Resonance; conditions: SPR, immobilized 3-Lipid II, 25°C
Procedure: Short-chain water-soluble Lipid II containing a lipid tail of three isoprene units was generated and purified essentially as described. Typically, M. flavus vesicles (120 μmol lipid-Pi) were incubated together with 500 μmol UDP-GlcNAc, 500 μmol UDP-MurNAC-pentapeptide and 400 μmol farnesyl phosphate in 100 mM Tris-HCl pH 8.0, 5 mM MgCl2. The incubation lasted two hours at room temperature for 3-P. The synthesis of 3-Lipid II was followed using RP-8 reversed phase TLC (Merck) developed in 75% methanol. For purification, the membranes were removed by centrifugation at 40,000 x g and the supernatant was collected and loaded on a C18 HPLC column and eluted with a linear gradient from 50 mM ammonium bicarbonate to 100% methanol in 30 minutes. Farnesyl-Lipid II (3-Lipid II) eluted at approximately 60% methanol. Its identity was confirmed by mass spectroscopy. Surface Plasmon Resonance binding experiments were carried out on a BIAcore T100 system (BIAcore Inc., Piscataway, NY) at 25°C. The assay buffer was 10 mM HEPES, 150 mM NaCl, 0.05% surfactant P20, pH 7.4 (± 3 mM EDTA) supplemented with 10% DMSO. 3-Lipid II (50 RUs) was immobilized on CM5 sensor chips using the amine-coupling chemistry recommended by the manufacturer. For initial determination of binding, compounds were introduced into the flow-cells (30 μl/min) in the running buffer at 10 μM. Resonance signals were corrected for nonspecific binding by subtracting the background of the control flow-cell. After each analysis, the sensor chip surfaces were regenerated with 50 mM NaOH for 30 s at a flow rate 100 μl/min, and equilibrated with the buffer prior to next injection. For binding kinetics studies, binding isotherms were analyzed with manufacturer-supplied software for BIAcore T100.

[13] = tested on: HeLa cells; test: Cytotoxicity against mammalian cells (MTS assay); format: cell-based
Procedure: The cytotoxicity concentration of antibacterial compounds that produces half maximal decrease in viability (CC50) against mammalian cells (HeLa, ATCC CCL-2.2) was determined as described. The effect of compounds on HeLa cell viability was assessed in triplicate by measuring the mitochondrial activity using MTS assays according to the manufacturer’s instructions (Cell Titer 96 proliferation assay, Promega). The cells were incubated for 72 hours in RPMI1640 medium containing the compounds at final concentrations ranging from 64 to 0.125 μg/ml. CC50 was determined using a standard curve of serially diluted untreated cells in each experiment.

[14] = tested on: A. baumanii ATCC 19606; test: Antibacterial activity (MIC, broth dilution); format: cell-based, Acinetobacter baumanii; conditions: CLSI, in µg/mL
Source text: Staphylococcus aureus ATCC 29213, Escherichia coli ATCC 25922, Enterococcus faecalis ATCC 29212, Streptococcus pneumonia ATCC 49619 and Acinetobacter baumanii ATCC 19606 were obtained from Microbiologics (St. Cloud, MN). E. faecalis ATCC 51575, ATCC 51299 and REMEL C99707 and E. faecium ATCC 51559 (MDR), REMEL IH79985 and REMEL C110914 were generously provided by the Laboratory of Pathology, University of Maryland Baltimore School of Medicine. Unless stated otherwise, chemicals and reagents were purchased from Sigma.
as §1

| SMILES | Antibacterial activity (MIC) E. faecium F118 (VRE) [1] | Antibacterial activity (MIC) K. pneumoniae NR-15410 (KPC) [2] [µg/mL] | Antibacterial activity (MIC) S. aureus MRSA 1094 [3] [µg/mL] | Antibacterial activity (MIC) P. aeruginosa ATCC 27853 [4] [µg/mL] | Antibacterial activity (MIC) E. aerogenes ATCC 13048 [5] [µg/mL] | Antibacterial activity (MIC) S. aureus HFH-30123 (MRSA) [6] [µg/mL] | Antibacterial activity (MIC) E. faecium EF1509 (VRE) [7] | Antibacterial activity (MIC) P. aeruginosa X13273 [8] | Antibacterial activity (MIC) K. pneumoniae NR-15411 (KPC) [9] [µg/mL] | Antibacterial activity (MIC) P. aeruginosa PA01 [10] [µg/mL] | Antibacterial activity (MIC) E. cloacae ATCC 13047 [11] [µg/mL] | Kd [12] [µM] | CC50% (72 h HeLa cells) [13] | Antibacterial activity (MIC) A. baumanii ATCC 19606 [14] |
| --- | --- | --- | --- | --- | --- | --- | --- | --- | --- | --- | --- | --- | --- | --- |
| CCc1ccc(-c2cc(/C=C/C=C/c3ccc(N(C)C)cc3)[o+]c(-c3ccc(CC)cc3)c2)cc1.F[B-](F)(F)F [6jc64-2] | 16 | ≥ 64 | 8 | ≥ 64 | ≥ 64 | 8 | 5.66 | >=64 | ≥ 64 | ≥ 64 | ≥ 64 | 23.8 ± 4 | <.78125 | >=64 |
| CCc1ccc(-c2cc(/C=C/c3c[nH]c4ccccc34)[o+]c(-c3ccc(CC)cc3)c2)cc1.F[B-](F)(F)F [6jc64-3] | 8 | 64 | 5.66 | ≥ 64 | ≥ 64 | 4 | 8 | >=64 | 64 | ≥ 64 | 64 | 4.92 ± 0.5 | 3.29 | >=64 |
| Cc1ccc(-c2cc(/C=C/c3cc4c5c(c3)CCCN5CCC4)[o+]c(-c3ccc(C)cc3)c2)cc1.F[B-](F)(F)F [6jc65-1] | 4 | 64 | 2.83 | 64 | 32 | 2 | 2 | 64 | ≥ 64 | 64 | 64 | 2.17 ± 0.2 | <.78125 | 11.31 |
| Cc1ccc(-c2cc(/C=C/c3cn(C)c4ccccc34)[o+]c(-c3ccc(C)cc3)c2)cc1.F[B-](F)(F)F [6jc65-2] | 4 | 64 | 2 | ≥ 64 | 64 | 2 | 2 | >=64 | ≥ 64 | ≥ 64 | 64 | 3.9 ± 0.4 | 0.94 | 32 |
| Cn1cc(/C=C/c2cc(-c3ccccc3)cc(-c3ccccc3)[o+]2)c2ccccc21.F[B-](F)(F)F [6jc66-1] | 8 | ≥ 64 | 2.83 | ≥ 64 | ≥ 64 | 4 | 4 | >=64 | ≥ 64 | ≥ 64 | ≥ 64 | 2.9 ± 0.3 | 1.36 | 45.25 |
| CCc1ccc(-c2cc(/C=C/c3cn(C)c4ccccc34)[o+]c(-c3ccc(CC)cc3)c2)cc1.F[B-](F)(F)F [6jc66-2] | 5.66 | 64 | 4 | ≥ 64 | ≥ 64 | 4 | 4 | >=64 | ≥ 64 | ≥ 64 | ≥ 64 | 1.6 ± 0.2 | 1.42 | 64 |
| Cn1cc(/C=C/c2cc(-c3ccc(C(C)(C)C)cc3)cc(-c3ccc(C(C)(C)C)cc3)[o+]2)c2ccccc21.F[B-](F)(F)F [6jc66-3] | 11.31 | ≥ 64 | 8 | ≥ 64 | ≥ 64 | 8 | 4 | >=64 | ≥ 64 | ≥ 64 | ≥ 64 | 60 ± 11 | 5.68 | >=64 |
| Cc1ccc(-c2cc(/C=C/c3cn(C)c4ccccc34)[o+]c(-c3ccc(C)c(C)c3)c2)cc1C.F[B-](F)(F)F [6jc66-4] | 4 | 64 | 2 | ≥ 64 | ≥ 64 | 2 | 2 | >=64 | ≥ 64 | ≥ 64 | ≥ 64 | 27.9 ± 2 | 0.92 | 64 |
| Cc1ccc(-c2cc(/C=C/c3c[nH]c4ccccc34)[o+]c(-c3ccc(C)cc3)c2)cc1.F[B-](F)(F)F [6jc-53-2] | 5.657 | ≥ 64 | 2 | ≥ 64 | ≥ 64 | 4 | 8 | >=64 | ≥ 64 | ≥ 64 | ≥ 64 | 10 ± 3 | 1.12 | >=64 |
